# Biological target: T1, BRAF (V600E) (Homo sapiens, UniProt P15056, V600E)
# T1 construct: area encoding the BRAF kinase domain region, so that the protein contains an N-terminal Flag; made in house; host or cells: SF-21 insect cells infected with recombinant baculovirus BAC-V600E
# Assay: Determination of BRAF (V600E) kinase inhibitory activity
# Format: biochemical
# Conditions: test compound 1.0 μM; substrate GST-MEK1 (K96R); [γ-32P]ATP; read-out: Inhibitory rate (%) at 1.0 μM
# Method: Determination of BRAF (V600E) Kinase Inhibitory Activity
# A test compound (2.5 μL) dissolved in dimethyl sulfoxide (DMSO) was added to 37.5 μL of a reaction solution (25 mM HEPES (pH 7.5), 10 mM magnesium acetate, 1 mM dithiothreitol) containing BRAF (V600E) enzyme (30 ng) and recombinant type protein GST-MEK1 (K96R) 250 ng, and the mixture was incubated at room temperature for 10 min. ATP solution (10 μL, 2.5 μM ATP, 0.1 μCi [γ-^32P]ATP) was added to the obtained mixture, and the mixture was reacted at room temperature for 20 min. The reaction was quenched by adding 50 μL of ice-cooled 20% trichloroacetic acid (Wako Pure Chemical Industries, Ltd.). The reaction solution was allowed to stand at 4° C. for 30 min, and the acid-precipitable fraction was transferred to GF/C filter plate (Millipore Corporation) using cell harvester (PerkinElmer). The plate was dried at 45° C. for 60 min, and 40 μL of MicroScinti 0 (PerkinElmer) was added thereto. The radioactivity was measured using TopCount (PerkinElmer). The kinase inhibitory rate (%) of the test compound was calculated by the following formula: Inhibitory rate (%)=(1−(count of test compound−blank)÷(control−blank))×100
# The count of the solution reacted without addition of the compound was used as a “control”, and the count of the solution without the compound and enzyme was used as a “blank”.
# T1 sequence (P15056 457-717 V600E limits assumed): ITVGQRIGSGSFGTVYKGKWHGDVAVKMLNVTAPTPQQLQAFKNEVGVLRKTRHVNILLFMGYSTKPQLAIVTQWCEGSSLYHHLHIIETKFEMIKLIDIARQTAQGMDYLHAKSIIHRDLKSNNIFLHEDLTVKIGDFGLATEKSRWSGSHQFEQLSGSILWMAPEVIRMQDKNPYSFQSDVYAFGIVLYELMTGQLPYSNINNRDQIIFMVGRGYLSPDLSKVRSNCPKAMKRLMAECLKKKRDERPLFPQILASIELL
row,SMILES,inhibition at 1 µM [%]
1,"Cc1ccc(NC(=O)c2cccc(C(F)(F)F)c2)cc1Oc1ccc2nc(NC(=O)C3CC3)sc2n1 [Example C8, N-[3-({2-[(cyclopropylcarbonyl)amino][1,3]thiazolo[5,4-b]pyridin-5-yl}oxy)-4-methylphenyl]-3-(trifluoromethyl)benzamide]",99
2,"O=C(Nc1cccc(Oc2ccc3nc(NC(=O)C4CC4)sc3n2)c1)c1cccc(C(F)(F)F)c1 [Example C20, N-[3-({2-[(cyclopropylcarbonyl)amino][1,3]thiazolo[5,4-b]pyridin-5-yl}oxy)phenyl]-3-(trifluoromethyl)benzamide]",100
3,"CN1CCN(CC(=O)Nc2nc3ccc(Oc4cccc(NC(=O)c5cccc(C(F)(F)F)c5)c4)nc3s2)CC1 [Example C22, N-{3-[(2-{[(4-methylpiperazin-1-yl)acetyl]amino}[1,3]thiazolo[5,4-b]pyridin-5-yl)oxy]phenyl}-3-(trifluoromethyl)benzamide]",100
4,"COc1ccc(NC(=O)c2cccc(C3(C#N)CC3)c2)cc1Oc1ccc2nc(NC(=O)C3CC3)sc2n1 [Example C1, 3-(1-cyanocyclopropyl)-N-[3-({2-[(cyclopropylcarbonyl)amino][1,3]thiazolo[5,4-b]pyridin-5-yl}oxy)-4-methoxyphenyl]benzamide]",100

# Tested on: MEK1/2 phosphorylation (Ser217/221) in HT-29 cells
# Assay: Colon cancer cell HT-29 intracellular MEK phosphorylation inhibitory action in vitro
# Format: cell-based
# Conditions: Homo sapiens, 2 hr treatment, Western blot of phosphorylated MEK1/2
# Method: Colon Cancer Cell HT-29 Intracellular MEK Phosphorylation Inhibitory Action in vitro
# A cell suspension (500 μL) of human colon cancer cell HT-29 was plated in a 48-well plate (100,000 cells/well), and the cells were cultured overnight at 37° C. in the presence of 5% CO2, treated with a test compound (250 μL/well) diluted in 3-fold dilution series and cultured for two more hours. After 2 hr, the culture medium containing the test compound was removed, and the cells were lysed with SDS sample buffer (100 μL/well) and heated at 95° C. for 5 min. Thereafter, the cells were applied to SDS-PAGE, and the protein was transferred onto Sequi-Blot™ PVDF Membrane (Bio-Rad) by the Western blot method. The cells were blocked with a block-Ace solution (Snow Brand Milk Products Co., Ltd) dissolved in phosphate buffer to 5% W/V, and reacted overnight with anti-phosphorylated MEK1/2 (Ser217/221) (Cell signaling #9121) diluted 1000-fold with phosphate buffer containing 0.4% block-Ace. The membrane was washed with phosphate buffer containing 0.1% Tween 20 (Wako Pure Chemical Industries, Ltd.), and reacted at room temperature for 1 hr with HRP labeled rabbit IgG polyclonal antibody (Cell signaling #7074) diluted 1000-fold with phosphate buffer containing 0.4% block-Ace. The membrane was washed in the same manner as above, chemical luminescence of a phosphorylated MEK1/2 protein labeled with the antibody, which was caused by ECL-plus Detection Reagent (Amersham bioscience), was detected by Luminescent Image Analyzer LAS-1000 (FUJIFILM Corporation).
row,SMILES,IC50 [nM]
1,CN1CCN(CC(=O)Nc2nc3ccc(Oc4cc(NC(=O)c5cccc(C(C)(C)C#N)c5)ccc4Cl)nc3s2)CC1 [Example C51],< 500
2,"Cc1ccc(NC(=O)c2cccc(C(F)(F)F)c2)cc1Oc1ccc2nc(NC(=O)CO)sc2n1 [Example C9, N-(3-{[2-(glycoloylamino)[1,3]thiazolo[5,4-b]pyridin-5-yl]oxy}-4-methylphenyl)-3-(trifluoromethyl)benzamide]",< 500
3,"Cc1ccc(NC(=O)c2cccc(C(C)(C)C#N)c2)cc1Oc1ccc2nc(NC(=O)CO)sc2n1 [Example C13, 3-(1-cyano-1-methylethyl)-N-(3-{[2-(glycoloylamino)[1,3]thiazolo[5,4-b]pyridin-5-yl]oxy}-4-methylphenyl)benzamide]",< 500
4,"Cc1ccc(NC(=O)c2cccc(C(C)(C)C#N)c2)cc1Oc1ccc2nc(NC(=O)/C=C/c3ccc(Cl)cc3)sc2n1 [Example C99, N-{3-[(2-{[(2E)-3-(4-chlorophenyl)prop-2-enoyl]amino}[1,3]thiazolo[5,4-b]pyridin-5-yl)oxy]-4-methylphenyl}-3-(1-cyano-1-methylethyl)benzamide]",< 500
5,"COc1ccc(NC(=O)c2cccc(C3(C#N)CC3)c2)cc1Oc1ccc2nc(NC(=O)CN3CCN(C)CC3)sc2n1 [Example C2, 3-(1-cyanocyclopropyl)-N-{4-methoxy-3-[(2-{[(4-methylpiperazin-1-yl)acetyl]amino}[1,3]thiazolo[5,4-b]pyridin-5-yl)oxy]phenyl}benzamide]",< 500
6,"CC(=O)Nc1nc2ccc(Oc3ccc(F)c(NC(=O)c4cccc(C5(C#N)CC5)c4Cl)c3)nc2s1 [Example C65, N-(5-{[2-(acetylamino)[1,3]thiazolo[5,4-b]pyridin-5-yl]oxy}-2-fluorophenyl)-2-chloro-3-(1-cyanocyclopropyl)benzamide]",< 500
7,"CN(c1cccc(NC(=O)c2cccc(C(F)(F)F)c2)c1)c1ncc2nc(NC(=O)C3CC3)sc2n1 [Example D2, N-{3-[{2-[(cyclopropylcarbonyl)amino][1,3]thiazolo[5,4-d]pyrimidin-5-yl}(methyl)amino]phenyl}-3-(trifluoromethyl)benzamide]",< 500
8,"Cc1ccc(Oc2ccc3nc(NC(=O)CN4CCN(C)CC4)sc3n2)cc1NC(=O)c1cccc(C(C)(C)C#N)c1 [Example C35, 3-(1-cyano-1-methylethyl)-N-{2-methyl-5-[(2-{[(4-methylpiperazin-1-yl)acetyl]amino}[1,3]thiazolo[5,4-b]pyridin-5-yl)oxy]phenyl}benzamide]",< 500
9,"CN(c1cccc(NC(=O)c2cccc(C(F)(F)F)c2)c1)c1ccc2nc(NC(=O)C3CC3)sc2n1 [Example C40, N-{3-[{2-[(cyclopropylcarbonyl)amino][1,3]thiazolo[5,4-b]pyridin-5-yl}(methyl)amino]phenyl}-3-(trifluoromethyl)benzamide]",< 500
10,"N#CC1(c2cccc(C(=O)Nc3cccc(Oc4ccc5nc(NC(=O)C6CC6)sc5n4)c3)c2)CC1 [Example C26, 3-(1-cyanocyclopropyl)-N-[3-({2-[(cyclopropylcarbonyl)amino][1,3]thiazolo[5,4-b]pyridin-5-yl}oxy)phenyl]benzamide]",< 500
11,"Cc1ccc(NC(=O)c2cccc(C3(C#N)CC3)c2)cc1Oc1ccc2nc(NC(=O)C3CC3)sc2n1 [Example C16, 3-(1-cyanocyclopropyl)-N-[3-({2-[(cyclopropylcarbonyl)amino][1,3]thiazolo[5,4-b]pyridin-5-yl}oxy)-4-methylphenyl]benzamide]",< 500
12,"Cc1ccc(NC(=O)c2cccc(C(F)(F)F)c2)cc1Oc1ccc2nc(NC(=O)CN3CCN(C)CC3)sc2n1 [Example C11, N-{4-methyl-3-[(2-{[(4-methylpiperazin-1-yl)acetyl]amino}[1,3]thiazolo[5,4-b]pyridin-5-yl)oxy]phenyl}-3-(trifluoromethyl)benzamide]",< 500

# Reference: patent US8344135B2, “Heterocyclic compound and use thereof” (Takeda Pharmaceutical Company Limited, priority 2007, dated 2013)
